“And” between values parts separate entries of the source, which are not always exact repeats. Equal values may be shown once.

For series [1], the target named is T1, CYP2J2 in the presence of CPR (Homo sapiens, UniProt P51589).
T1 construct: His-tag; made in house; host or cells: E. coli DH-5α with pTGro7 plasmid (CYP)
T1 sequence (P51589 1-502): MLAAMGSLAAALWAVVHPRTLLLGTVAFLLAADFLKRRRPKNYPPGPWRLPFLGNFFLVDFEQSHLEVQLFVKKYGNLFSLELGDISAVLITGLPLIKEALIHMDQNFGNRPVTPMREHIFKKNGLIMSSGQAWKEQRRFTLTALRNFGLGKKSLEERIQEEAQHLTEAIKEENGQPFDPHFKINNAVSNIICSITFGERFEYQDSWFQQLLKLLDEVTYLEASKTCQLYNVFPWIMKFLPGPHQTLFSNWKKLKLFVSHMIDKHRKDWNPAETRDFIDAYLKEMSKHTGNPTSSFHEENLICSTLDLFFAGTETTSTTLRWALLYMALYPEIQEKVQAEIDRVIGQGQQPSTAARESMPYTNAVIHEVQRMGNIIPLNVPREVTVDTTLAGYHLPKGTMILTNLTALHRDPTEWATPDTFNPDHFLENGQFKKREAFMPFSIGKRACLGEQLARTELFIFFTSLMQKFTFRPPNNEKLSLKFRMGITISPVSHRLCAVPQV
T1 sequence (P16435 1-677 partner): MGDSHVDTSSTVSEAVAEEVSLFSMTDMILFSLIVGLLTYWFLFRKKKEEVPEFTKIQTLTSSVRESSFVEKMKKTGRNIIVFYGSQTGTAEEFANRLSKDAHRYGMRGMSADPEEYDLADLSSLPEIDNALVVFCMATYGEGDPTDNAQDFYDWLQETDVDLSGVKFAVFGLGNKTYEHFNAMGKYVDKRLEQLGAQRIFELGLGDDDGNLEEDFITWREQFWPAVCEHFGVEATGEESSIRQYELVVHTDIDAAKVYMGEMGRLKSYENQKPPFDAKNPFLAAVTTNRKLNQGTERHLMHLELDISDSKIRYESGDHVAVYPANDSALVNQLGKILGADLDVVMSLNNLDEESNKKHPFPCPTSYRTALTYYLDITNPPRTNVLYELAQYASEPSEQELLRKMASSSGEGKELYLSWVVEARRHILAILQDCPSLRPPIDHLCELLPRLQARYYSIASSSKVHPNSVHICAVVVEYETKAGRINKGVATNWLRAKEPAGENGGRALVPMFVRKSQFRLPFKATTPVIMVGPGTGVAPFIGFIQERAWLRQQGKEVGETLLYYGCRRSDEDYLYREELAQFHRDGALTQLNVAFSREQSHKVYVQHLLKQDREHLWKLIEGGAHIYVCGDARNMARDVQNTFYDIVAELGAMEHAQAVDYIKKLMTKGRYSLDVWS
The series is described as follows: Spectroscopic titration, CYP2J2–CPR complex. Type of series: binding. The procedure:
For CBC titration to CYP–CPR complex, initially CYPs were dissolved in 400 μL of 0.1 M phosphate buffer (pH = 7.4) keeping the concentration between […]. Following this 50 μL of CPR (50 μM stock) was added to both cuvettes, and the final concentration of both of the proteins was 5–6 μM. Both proteins were initially mixed and incubated for 5 min followed by titration with CBC in the same process as mentioned above. The substrate-bound spectra were then subtracted from substrate-free spectra, and the extent of binding was analyzed using Origin Pro 2020.

For another series, the target named is CYP3A4 (Homo sapiens, UniProt P08684). The series is described as follows: Spectroscopic titration (Soret shift), CYP3A4. It counts as binding. Set-up: His-tag; made in house; host or cells: E. coli DH-5α with pTGro7 plasmid. Particulars: CYP3A4, absence of CPR. Here is the method:
CBC binding to various CYPs was determined by analyzing the Soret shift from ∼417 to ∼390 nm. CBC (stock 10 mM) was dissolved in ethanol and titrated with different CYPs at room temperature. Buffer-exchanged CYP2J2, CYP2D6, CYP3A4, and CYP2C8 (concentrations of proteins were kept between 4 and 5 μM) were dissolved in 0.1 M phosphate buffer (pH = 7.4), and initial spectra were recorded from 200 to 800 nm with a prominent peak at 417 nm. The concentration of CBC was varied from 0 to 100 μM keeping the final concentration of substrate in EtOH not more than 1% in cuvette. 0–4 μL of stock CBC was added using a Hamilton syringe in both the sample and blank cuvettes. The mixture was incubated for 5 min at 37 °C, and absorbance spectra were recorded using a Cary Bio 300 UV–vis spectrophotometer (Agilent Technologies, Santa Clara, CA). To eliminate the background absorbance, we derived the final spectra by […].

CYP3A4, sequence (P08684 whole entry): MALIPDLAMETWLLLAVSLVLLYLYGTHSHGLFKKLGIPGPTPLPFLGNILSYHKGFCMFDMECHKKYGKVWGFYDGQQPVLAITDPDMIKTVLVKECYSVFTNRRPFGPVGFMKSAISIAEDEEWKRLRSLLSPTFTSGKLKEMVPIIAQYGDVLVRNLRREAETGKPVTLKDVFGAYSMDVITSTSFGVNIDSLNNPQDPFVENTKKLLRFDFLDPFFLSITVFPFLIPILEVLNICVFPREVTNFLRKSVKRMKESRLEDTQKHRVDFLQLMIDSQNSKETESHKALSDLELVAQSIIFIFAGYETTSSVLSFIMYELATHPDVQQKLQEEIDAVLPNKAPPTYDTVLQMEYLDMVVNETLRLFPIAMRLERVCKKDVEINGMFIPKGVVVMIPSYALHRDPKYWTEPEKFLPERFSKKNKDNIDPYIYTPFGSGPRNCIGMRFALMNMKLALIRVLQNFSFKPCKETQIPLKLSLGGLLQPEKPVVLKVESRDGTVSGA

As for `CCCCCc1cc(O)c2c(c1)OC(C)(CCC=C(C)C)C=C2` (stereo not shown) [CBC, Cannabichromene], the “ΔAmax (spin state change due to heme perturbation)” value in series [1] is 0.09 ± 0.00 and ~0.1; on CYP3A4, 0.11 ± 0.00 and ~0.11. The Kd in series [1] (read-out: Kd(app)) is 1.19 µM and < 10 µM and ~1 µM; on CYP3A4 (read-out: Kd(app)) it was 9.57 µM and ~9.5 µM.

These data come from publication PMC11061835, “Elucidating the Mechanism of Metabolism of Cannabichromene by Human Cytochrome P450s” (Journal of Natural Products, 2024).
